Reference: patent publication US20250313574A1, “SIALIC ACID DERIVATIVES AND METHODS OF USING SAME” (EISAI R&D MANAGEMENT CO., LTD., priority 2022, published 2025)
pEC50: −log10 of the molar value.

Target: Recombinant human CD33 protein (Homo sapiens (Human), UniProt P20138)
Test: CD33 competitive binding assay for HTS drug screen (fluorescent multivalent sialic acid probe)
Method: This is a competitive binding assay that uses recombinant CD33 immobilized to a plate and a fluorescently-labeled multivalent sialic acid analog as a probe. Binding of drug to the site on CD33 to which sialic acid binds is detected by reduced binding of the fluorescent probe. Recombinant human CD33 protein (for example Acro Biosystems cat #CD3-H5257) was added at a concentration of 10 μg/ml in 20 mM acetate buffer (pH5.5) to a black plastic plate (Corning 4510) and allowed to incubate overnight at 4° C. The next day, the wells were washed 3 times with PBS containing 0.02% Tween-20. This was followed by a 30-minute incubation with PBS containing 0.2% Tween-20 and 0.5% BSA to block non-specific binding to the well. This buffer is removed and replaced with 10 μl of the same buffer, which is also used as the assay buffer. The fluorescent multivalent sialic acid probe was prepared as a 4× concentration as follows. A biotinylated sialic acid analog A-375 was mixed with biotin-4-Fluorescein isothiocyanate (biotin-4-FITC) at a 3:1 molar ratio with final concentrations (4× stock) of 60 μM A-375 and 20 μM biotin-4-FITC. After these were mixed, 20 μM of neutravidin was added, which should form complexes consisting of neutravidin, fluorescein and sialic acid with an average complex consisting of 1 neutravidin, 1 FITC and 3 sialic acid analogs. The multimerization of the sialic acid analog is critical to the assay and improves the affinity of the sialic acid analog several orders of magnitude. A test compound, for example A-001, is added at 5 μl to the 10 μl assay buffer already in the well. After a brief incubation, 5 μl of the 4× stock solution of sialic acid complexes was added. The final concentration of the complexes was therefore 5 μM neutravidin, 15 μM A-375 and 5 μM FITC. The plate was incubated at room temperature for 30 mins and then washed with PBS containing 0.2% Tween-20. Binding of the sialic acid complex is very stable, with an off-rate of several days. Bound complex was then detected using a standard plate reader to quantify FITC fluorescence.

Sequence of Recombinant human CD33 protein (P20138 18-259): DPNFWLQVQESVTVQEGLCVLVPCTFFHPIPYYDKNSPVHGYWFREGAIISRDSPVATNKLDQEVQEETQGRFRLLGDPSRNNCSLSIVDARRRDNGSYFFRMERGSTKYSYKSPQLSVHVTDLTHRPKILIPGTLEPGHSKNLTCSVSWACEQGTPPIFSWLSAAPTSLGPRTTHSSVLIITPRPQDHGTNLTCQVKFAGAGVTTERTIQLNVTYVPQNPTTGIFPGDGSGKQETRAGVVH

| SMILES | pEC50 |
| --- | --- |
| CC(=O)N[C@H]1[C@H]([C@H](O)[C@H](O)CNC(=O)c2cc(C)c(O)c(C)c2)O[C@@](CCN2CCOC[C@@]23CCN(C(=O)COCC(F)(F)F)C3)(C(=O)O)C[C@@H]1O [A-088] | 5.71 |
| CC(=O)N[C@H]1[C@H]([C@H](O)[C@H](O)CNC(=O)c2cc(C)c(O)c(C)c2)O[C@@](CCN2CCOC[C@@]23CCN(C(=O)C(c2ccccc2)C2CCCCC2)C3)(C(=O)O)C[C@@H]1O (stereo partly drawn) [A-089] | 6.54 |
| CC(=O)N[C@H]1[C@H]([C@H](O)[C@H](O)CNC(=O)c2cc(C)c(O)c(C)c2)O[C@@](CCN2CCOC[C@@]23CCN(C(=O)C2CCOCC2)C3)(C(=O)O)C[C@@H]1O [A-091] | 6.34 |
| CC(=O)N[C@H]1[C@H]([C@H](O)[C@H](O)CNC(=O)c2cc(C)c(O)c(C)c2)O[C@@](CCN2CCOC[C@@]23CCN(C(=O)c2ccco2)C3)(C(=O)O)C[C@@H]1O [A-093] | 6.05 |
| CC(=O)N[C@H]1[C@H]([C@H](O)[C@H](O)CNC(=O)c2cc(C)c(O)c(C)c2)O[C@@](CCN2CCOC[C@@]23CCN(C(=O)c2ccc4[nH]cnc4c2)C3)(C(=O)O)C[C@@H]1O [A-094] | 5.63 |
| CC(=O)N[C@H]1[C@H]([C@H](O)[C@H](O)CNC(=O)c2cc(C)c(O)c(C)c2)O[C@@](CCN2CCN(C)C[C@]23CCN(C(=O)NC(C)(C)C)C3)(C(=O)O)C[C@@H]1O [A-106] | 5.71 |
| CC(=O)N[C@H]1[C@H]([C@H](O)[C@H](O)CNC(=O)c2cc(C)c3[nH]ncc3c2)O[C@@](CCN2CCOC[C@@]23CCN(C(=O)OC(C)(C)C)C3)(C(=O)O)C[C@@H]1O [A-130] | 8.05 |
| CC(=O)N[C@H]1[C@H]([C@H](O)[C@H](O)CNC(=O)c2ccc3sc(C)nc3c2)O[C@@](CCN2CCOC[C@@]23CCN(C(=O)OC(C)(C)C)C3)(C(=O)O)C[C@@H]1O [A-131] | 7.62 |
| CC(=O)N[C@H]1[C@H]([C@H](O)[C@H](O)CNC(=O)/C=C/c2cn[nH]c2)O[C@@](CCN2CCOC[C@@]23CCN(C(=O)OC(C)(C)C)C3)(C(=O)O)C[C@@H]1O [A-176] | 6.19 |
| CC(=O)N[C@H]1[C@H]([C@H](O)[C@H](O)CNC(=O)c2cc(C)c(O)c(C)c2)O[C@@](CN2CCCC3(CCN(C(=O)OC(C)(C)C)C3)C2)(C(=O)O)C[C@@H]1O (stereo partly drawn) [A-193] | 7.05 |
| CC(=O)N[C@H]1[C@H]([C@H](O)[C@H](O)CNC(=O)c2cc(C)c(O)c(C)c2)O[C@@](C/C=C/C2(F)CCN(C(=O)OC(C)(C)C)C2)(C(=O)O)C[C@@H]1O (stereo partly drawn) [A-198] | 6.83 |
| CC(=O)N[C@H]1[C@H]([C@H](O)[C@H](O)CNC(=O)c2cc(C)c(O)c(C)c2)O[C@@](C/C=C/C2CCN(c3cc(N(C)C)ccn3)C2)(C(=O)O)C[C@@H]1O (stereo partly drawn) [A-199] | 5.01 |
| Cc1cc(C(=O)NC[C@@H](O)C[C@H]2CCC[C@](CCN3CCOC[C@@]34CCN(C(=O)OC(C)(C)C)C4)(C(=O)O)O2)cc(C)c1O [A-208] | < 4.70 |
| CC(=O)N[C@H]1[C@H]([C@H](O)[C@H](O)CNC(=O)c2cc(C)c(O)c(C)c2)O[C@@](C[C@@H]2COC[C@@]3(CCN(C(=O)OC(C)(C)C)C3)N2)(C(=O)O)C[C@@H]1O [A-226, (2R,4S,5R,6R)-5-acetamido-2-(((5S,7R)-2-(tert-butoxycarbonyl)-9-oxa-2,6-diazaspiro[4.5]decan-7-yl)methyl)-6-((1R,2R)-1,2-dihydroxy-3-(4-hydroxy-3,5-dimethylbenzamido)propyl)-4-hydroxytetrahydro-2H-pyran-2-carboxylic acid] | 5.41 |
| C#C[C@H](C)C(=O)C(=O)Nc1cccc([C@@H]2OC(C)(C)OC2C[C@]2(C(=O)O)C[C@H](O)[C@@H](NC(C)=O)[C@H]([C@H](O)[C@H](O)CNC(=O)c3cc(C)c(O)c(C)c3)O2)c1 (stereo partly drawn) [A-306] | 5.25 |
| Cc1cc2cc(C)c1OCCCC[C@H](NC(=O)C1CCCOC1)c1cccc(c1)/C=C/C[C@]1(C(=O)O)C[C@H](O)[C@@H](NC(=O)Cn3cc(C4CCCCC4)nn3)[C@@H](O1)[C@H](O)[C@H](O)CNC2=O (stereo partly drawn) [A-350] | 4.88 |

The next lines start with the values.

| pEC50 | SMILES |
| --- | --- |
| 5.51 | CC(=O)N[C@H]1[C@H]([C@H](O)[C@H](O)CNC(=O)c2cc(C)c(O)c(C)c2)O[C@@](CCN2CCOC[C@@]23CCN(C(=O)COC(C)(C)C)C3)(C(=O)O)C[C@@H]1O [A-090] |
| 5.69 | CC(=O)N[C@H]1[C@H]([C@H](O)[C@H](O)CNC(=O)c2cc(C)c(O)c(C)c2)O[C@@](CCN2CCOC[C@@]23CCN(C(=O)COC2CCCC2)C3)(C(=O)O)C[C@@H]1O [A-092] |
| 5.77 | CC(=O)N[C@H]1[C@H]([C@H](O)[C@H](O)CNC(=O)c2cc(C)c(O)c(C)c2)O[C@@](CCN2CCOC[C@@]23CCN(C(=O)c2ccc4[nH]c(C(C)O)nc4c2)C3)(C(=O)O)C[C@@H]1O (stereo partly drawn) [A-095] |
| < 5.00 | CC(=O)N[C@H]1[C@H]([C@H](O)[C@H](O)CNC(=O)c2cc(C)c(O)c(C)c2)O[C@@](CCN2CCOC[C@@]23CCN(Cc2cccc(C)c2)C3)(C(=O)O)C[C@@H]1O [A-104] |
| 8.10 | CC(=O)N[C@H]1[C@H]([C@H](O)[C@H](O)CNC(=O)c2cc(C)c(O)c(C)c2)O[C@@](CCN2CCN(C)C[C@@]23CCN(C(=O)NC(C)(C)C)C3)(C(=O)O)C[C@@H]1O [A-105] |
| 6.42 | CC(=O)N[C@H]1[C@H]([C@H](O)[C@H](O)CNC(=O)c2cc(C)c(O)c(C)c2)O[C@@](CCN2CCNC[C@]23CCN(C(=O)NC(C)(C)C)C3)(C(=O)O)C[C@@H]1O [A-107] |
| 7.59 | CC(=O)N[C@H]1[C@H]([C@H](O)[C@H](O)CNC(=O)c2cc(C)c(O)c(C)c2)O[C@@](CCN2CCNC[C@@]23CCN(C(=O)NC(C)(C)C)C3)(C(=O)O)C[C@@H]1O [A-108] |
| 6.74 | CC(=O)N[C@H]1[C@H]([C@H](O)[C@H](O)CNC(=O)c2cc(C)c(O)c(C)c2)O[C@@](C/C=C/C2(O)CCN(C(=O)OC(C)(C)C)C2)(C(=O)O)C[C@@H]1O (stereo partly drawn) [A-197] |
| < 5.30 | Cc1cc(C(=O)NC[C@@H](O)[C@@H](O)[C@@H]2O[C@@](CCN3CCOC[C@@]34CCN(C(=O)OC(C)(C)C)C4)(C(=O)O)C[C@H](O)[C@H]2N(C)C)cc(C)c1O [A-203] |
| 4.91 | Cc1cc(C(=O)NC[C@@H](O)C[C@H]2CC[C@H](C)[C@](CCN3CCOC[C@@]34CCN(C(=O)OC(C)(C)C)C4)(C(=O)O)O2)cc2cc[nH]c12 [A-216] |
| < 4.70 | Cc1cc(C(=O)NC[C@@H](O)C[C@H]2CC[C@@H](C)[C@](CCN3CCOC[C@@]34CCN(C(=O)OC(C)(C)C)C4)(C(=O)O)O2)cc2cc[nH]c12 [A-217] |
| < 4.70 | Cc1cc(C(=O)NC[C@H](O)C[C@H]2CC[C@H](C)[C@](CCN3CCOC[C@@]34CCN(C(=O)OC(C)(C)C)C4)(C(=O)O)O2)cc2cc[nH]c12 [A-218] |
| < 4.70 | Cc1cc(C(=O)NC[C@H](O)C[C@H]2CC[C@@H](C)[C@](CCN3CCOC[C@@]34CCN(C(=O)OC(C)(C)C)C4)(C(=O)O)O2)cc2cc[nH]c12 [A-219] |
| 5.53 | CC(=O)N[C@H]1[C@H]([C@H](O)[C@H](O)CNC(=O)c2cc(C)c(O)c(C)c2)O[C@@](CC2OC(C)(C)O[C@H]2c2ccc3c(c2)N(C(=O)OC(C)(C)C)CC3)(C(=O)O)C[C@@H]1O (stereo partly drawn) [A-308] |
